# Values of other authors in patent US20110287061A1 (priority 2010, published 2011).
# Legend:
# [1] = tested on: gray hair; details: 50 patients with gray hair, daily administration for two months
# [2] = tested on: gray hair; details: of 20 patients taking varying amounts daily for other conditions
# [3] = tested on: hair loss; details: administered together with Saw Palmetto; individuals with mild to moderate hair loss
SMILES,hair colour change [1],cases of dramatic hair color change and hair re-growth [2],hair growth [3]
"Nc1ccc(C(=O)O)cc1 [PABA, 4-aminobenzoic acid]",marked darkening of the hair,5 cases,–
CC[C@H](CC[C@@H](C)[C@H]1CC[C@H]2[C@@H]3CC=C4C[C@@H](O)CC[C@]4(C)[C@H]3CC[C@]12C)C(C)C [beta-sitosterol],–,–,healthy hair growth
